Test results from patent US11801226B2, “Pharmaceutical formulation of odevixibat” (Albireo AB, priority 2018, dated 2023).
Converted amounts (≈) assume the structure as drawn.

Assays:
Format in all cases: physicochemical
[1] = Water content / hygroscopicity of crystal modification 1 versus relative humidity
Text: Crystal modification 1 of odevixibat cannot only be obtained from a mixture of water and ethanol, as described above, but also from a slurry of odevixibat in a mixture of water and an organic solvent selected from the group consisting of methanol, 2-propanol, acetone, acetonitrile, 1,4-dioxane, DMF and DMSO. Upon drying of the different mixed solvates obtained under these conditions (crystal modification 2), the same crystalline hydrate of odevixibat is obtained, namely crystal modification 1. Crystal modification 1 contains void volumes that are capable of containing up to about 2 moles of water associated with the crystal per mole of odevixibat, depending on the relative humidity. This form is therefore formally a channel hydrate. At about 30% relative humidity, however, crystal modification 1 contains a substantially stoichiometric amount of about 1.5 moles of water per mole of organic compound and is thus a sesquihydrate. The substantially stoichiometric amount of water is considered advantageous, as the water content of the crystals remains substantially constant even with humidity changes within the normal relative humidity range of about 30% to about 70% RH.
Whereas crystal modification 1 is a sesquihydrate containing about 3.5% (w/w) water at about 30% relative humidity (based on the total crystal weight), it has been observed that the crystal can take up an additional 1.5% (w/w) water when the humidity is increased up to 95% RH. The sorption and desorption of this additional water is fully reversible. The additional water may be adsorbed on the surface or may further fill the channels of the structure. In some embodiments, the term “overhydrated” refers to crystal modification 1 containing from about 1.5 to about 4 moles of water per mole of odevixibat, such as from about 1.5 to about 3.5, or such as from about 1.5 to 3, or such as from about 1.5 to about 2.5, or such as from about 1.5 to about 2 moles of water per mole of odevixibat. In some embodiments, the term “overhydrated” refers to crystal modification 1 containing from about 2 to about 4 moles of water per mole of odevixibat, such as from about 2 to about 3.5, or such as from about 2 to about 3, or such as from about 2 to 2.5 moles of water per mole of odevixibat.

[2] = Solubility of odevixibat in water; conditions: pH 7, 37° C.
Text: It is desirable that the use of organic solvents in the preparation of the formulation is avoided. In some embodiments, water is used as the solvent for the preparation of the formulation. […] Because of this low solubility in water, aqueous suspensions of odevixibat can contain larger agglomerates of odevixibat, which may lead to an uneven distribution of the active pharmaceutical ingredient on the cores, i.e. the cores may contain different amounts of odevixibat, which in turn impacts dose uniformity. Accordingly, in some embodiments, the aqueous suspension of odevixibat is homogeneous. In some embodiments, a homogeneous aqueous suspension of odevixibat is sprayed onto the cores.

[3] = Particle size distribution of crystalline odevixibat drug substance; conditions: typical value, crystalline material
Text: Crystalline odevixibat was used. Typical values for the particle size distribution of the crystalline material were d10=0.9 μm, d50=4 μm and d90=20 μm, wherein d10, d50 and d90 are defined as the diameters where 10%, 50% and 90%, respectively, of the particle population lies below these values. […]

Row | water content of crystal ([1]; about 30% relative humidity, based on total crystal weight) | hygroscopicity ([1]; between about 30 and about 70% RH) | additional water taken up ([1]; humidity increased up to 95% RH, fully reversible) | solubility [2] [µg/mL] | particle size distribution d10 [3] [μm] | particle size distribution d50 [3] [μm] | particle size distribution d90 [3] [μm] | SMILES | water content ([1]; about 30% relative humidity)
1 | about 3.5 % (w/w) | relatively low hygroscopicity | 1.5 % (w/w) | – | – | – | – | CCCCC1(CCCC)CN(c2ccccc2)c2cc(SC)c(OCC(=O)N[C@@H](C(=O)N[C@@H](CC)C(=O)O)c3ccc(O)cc3)cc2S(=O)(=O)N1 [crystal modification 1] | about 1.5 moles of water per mole of organic compound
2 | – | – | – | ~30 (≈ 40.5 µM) | 0.9 | 4 | 20 | CCCCC1(CCCC)CN(c2ccccc2)c2cc(SC)c(OCC(=O)N[C@@H](C(=O)N[C@@H](CC)C(=O)O)c3ccc(O)cc3)cc2S(=O)(=O)N1 [odevixibat, 1,1-dioxo-3,3-dibutyl-5-phenyl-7-methylthio-8-(N—{(R)-α-[N—((S)-1-carboxypropyl)carbamoyl]-4-hydroxybenzyl}carbamoylmethoxy)-2,3,4,5-tetrahydro-1,2,5-benzothiadiazepine] | –
